Results as given in ChEMBL document CHEMBL1144413 (J Med Chem, 2005).

Assays:
[1] = target: T1, Aldo-keto reductase family 1 member A1 (Homo sapiens, UniProt P14550); test: In vitro inhibition of recombinant human aldehyde reductase
T1 sequence (P14550 whole entry): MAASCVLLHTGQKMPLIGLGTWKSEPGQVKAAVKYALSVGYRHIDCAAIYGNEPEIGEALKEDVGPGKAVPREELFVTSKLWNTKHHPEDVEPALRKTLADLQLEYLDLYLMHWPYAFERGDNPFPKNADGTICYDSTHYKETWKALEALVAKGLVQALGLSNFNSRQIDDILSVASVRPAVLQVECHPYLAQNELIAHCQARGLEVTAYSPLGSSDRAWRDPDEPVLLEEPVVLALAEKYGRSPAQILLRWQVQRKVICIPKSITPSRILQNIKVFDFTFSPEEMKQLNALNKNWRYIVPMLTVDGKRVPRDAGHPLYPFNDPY

[2] = target: Aldo-keto reductase family 1 member B1 (Homo sapiens, UniProt P15121); test: In vitro inhibition of recombinant human aldose reductase expressed in Escherichia coli
[3] = Time require to reach maximum plasma concentration was determined in fasted rats after i.v. doses of 10 mg/kg/day; format: ADME, organism-based; set-up: route intravenous; conditions: rat, iv
Rattus norvegicus [4] = species: Rattus norvegicus
Description: Ability to lower elevated glucose levels in diabetic rats (streptozotocin treated) model at 0.95 mg/kg/day

Rattus norvegicus [5] = species: Rattus norvegicus; conditions: Plasma
Description: Ability to lower elevated plasma triglyceride levels in diabetic rats (streptozotocin treated) model at 1.4 mg/kg/day

[6] = Total body clearance was determined in fasted rats after p.o. doses of 6 mg/kg/day; format: ADME, organism-based; set-up: route oral; conditions: rat, in vivo, po, read-out: ClT
[7] = Total body clearance was determined in nonfasted rats after p.o. doses of 6 mg/kg/day; format: ADME, organism-based; set-up: route oral; conditions: rat, in vivo, po, read-out: ClT
[8] = Maximum plasma concentration was determined in fasted rats after p.o. doses of 6 mg/kg/day; format: ADME, organism-based; set-up: dose 6 mg/kg/day, route oral; conditions: rat, in vivo, po
Rattus norvegicus [9] = species: Rattus norvegicus; conditions: Plasma; remark: listed apart in the source
Description: Ability to lower elevated plasma triglyceride levels in diabetic rats (streptozotocin treated) model at 0.48 mg/kg/day

Rattus norvegicus [10] = test: Fructose accumulation in 3 month diabetic rats (streptozotocin treated) done for 30 minutes at 22 degree C in dark by using sorbitol dehydrogenase at 5 mg/kg/day; format: functional
Rattus norvegicus [11] = species: Rattus norvegicus; remark: listed apart in the source
Description: Ability to lower elevated glucose levels in diabetic rats (streptozotocin treated) model at 0.48 mg/kg/day

Rattus norvegicus [12] = species: Rattus norvegicus; remark: listed apart in the source
Description: Ability to lower elevated glucose levels in diabetic rats (streptozotocin treated) model at 1.4 mg/kg/day

[13] = Time require to reach maximum plasma concentration was determined in fasted rats after p.o. doses of 6 mg/kg/day; format: ADME, organism-based; set-up: route oral; conditions: rat, po
Rattus norvegicus [14] = test: Improvement in sorbitol accumulation in 3 month diabetic rats (streptozotocin treated) done for 30 minutes at 22 degree C in dark by using sorbitol dehydrogenase at 5 mg/kg/day; format: functional
Rattus norvegicus [15] = species: Rattus norvegicus; conditions: Plasma; remark: listed apart in the source
Description: Ability to lower elevated plasma triglyceride levels in diabetic rats (streptozotocin treated) model at 4.8 mg/kg/day

[16] = Half-life was determined in fasted rats after i.v. doses of 10 mg/kg/day; format: ADME, organism-based; set-up: route intravenous; conditions: rat, in vivo, iv
Rattus norvegicus [17] = test: Improvement in fructose accumulation in 3 month diabetic rats (streptozotocin treated) done for 30 minutes at 22 degree C in dark by using sorbitol dehydrogenase at 5 mg/kg/day; format: functional
Rattus norvegicus [18] = species: Rattus norvegicus; remark: listed apart in the source
Description: Ability to lower elevated glucose levels in diabetic rats (streptozotocin treated) model at 4.8 mg/kg/day

Rattus norvegicus [19] = test: Inhibition of sorbitol accumulation in lens of diabetic rats (streptozotocin treated) done for 30 minutes at 22 degree C in dark by using sorbitol dehydrogenase at 10 mg/kg/day; format: functional; conditions: Lens of camera-type eye, 0.5 h
[20] = Half-life was determined in nonfasted rats after p.o. doses of 6 mg/kg/day; format: ADME, organism-based; set-up: route oral; conditions: rat, in vivo, po
[21] = Maximum plasma concentration was determined in nonfasted rats after p.o. doses of 6 mg/kg/day; format: ADME, organism-based; set-up: dose 6 mg/kg/day, route oral; conditions: rat, in vivo, po
[22] = Half-life was determined in fasted rats after p.o. doses of 6 mg/kg/day; format: ADME, organism-based; set-up: route oral; conditions: rat, in vivo, po
Rattus norvegicus [23] = species: Rattus norvegicus; remark: listed apart in the source
Description: Sorbitol accumulation in 3 month diabetic rats (streptozotocin treated) done for 30 minutes at 22 degree C in dark by using sorbitol dehydrogenase at 5 mg/kg/day; BQL is Below quantifiable level

[24] = Area under the concentration time curve 0-24 h was determined in nonfasted rats after p.o. doses of 6 mg/kg/day; format: ADME, organism-based; set-up: dose 6 mg/kg/day, time < 24 hr, route oral; conditions: rat, in vivo, po
Rattus norvegicus [25] = species: Rattus norvegicus; conditions: Plasma; remark: listed apart in the source
Description: Ability to lower elevated plasma triglyceride levels in diabetic rats (streptozotocin treated) model at 1.9 mg/kg/day

Rattus norvegicus [26] = test: Improvement in myo-inositol accumulation in 3 month diabetic rats (streptozotocin treated) done for 30 minutes at 22 degree C in dark by using sorbitol dehydrogenase at 5 mg/kg/day; format: functional
[27] = Volume of distribution was determined in fasted rats after i.v. doses of 10 mg/kg/day; format: ADME, organism-based; set-up: route intravenous; conditions: rat, in vivo, iv
[28] = Total body clearance was determined in fasted rats after i.v. doses of 10 mg/kg/day; format: ADME, organism-based; set-up: route intravenous; conditions: rat, in vivo, iv, read-out: ClT
Rattus norvegicus [29] = species: Rattus norvegicus; conditions: Plasma; remark: listed apart in the source
Description: Ability to lower elevated plasma triglyceride levels in diabetic rats (streptozotocin treated) model at 0.95 mg/kg/day

[30] = Area under the concentration time curve 0-24 hr was determined in fasted rats after p.o. doses of 6 mg/kg/day; format: ADME, organism-based; set-up: time < 24 hr, dose 6 mg/kg/day, route oral; conditions: rat, in vivo, po
[31] = Area under the concentration time curve 0-24 hr was determined in fasted rats after i.v. doses of 10 mg/kg/day; format: ADME, organism-based; set-up: time < 24 hr, dose 10 mg/kg/day, route intravenous; conditions: rat, in vivo, iv
Rattus norvegicus [32] = test: Inhibition of sciatic nerve sorbitol accumulation in diabetic rats (streptozotocin treated) done for 30 minutes at 22 degree C in dark by using sorbitol dehydrogenase at 10 mg/kg/day; format: functional; conditions: 0.5 h
Rattus norvegicus [33] = species: Rattus norvegicus; remark: listed apart in the source
Description: Ability to lower elevated glucose levels in diabetic rats (streptozotocin treated) model at 1.9 mg/kg/day

[34] = Time require to reach maximum plasma concentration was determined in nonfasted rats after p.o. doses of 6 mg/kg/day; format: ADME, organism-based; set-up: route oral; conditions: rat, po
Rattus norvegicus [35] = test: Myo-inositol accumulation in 3 month diabetic rats (streptozotocin treated) done for 30 minutes at 22 degree C in dark by using sorbitol dehydrogenase at 5 mg/kg/day; format: functional
[36] = Maximum plasma concentration was determined in fasted rats after i.v. doses of 10 mg/kg/day; format: ADME, organism-based; set-up: dose 10 mg/kg/day, route intravenous; conditions: rat, in vivo, iv

For `O=C(O)Cn1cc(Cc2nc3cc(C(F)(F)F)ccc3s2)c2ccc(Br)cc21`, the IC50 [1] was 3400 nM.

In the case of `O=C(O)Cn1cc(Cc2nc3cc(F)c(F)cc3s2)c2ccccc21`, the IC50 [1] is reported as 13000 nM and the IC50 [2] is reported as 560 nM.

`O=C(O)Cn1cc(Cc2nc3ccc(Cl)cc3s2)c2ccccc21` showed an IC50 [1] of 2100 nM.

Work on `COc1ccc2c(c1)c(Cc1nc3c(F)c(F)cc(F)c3s1)cn2CC(=O)O` yielded an IC50 [2] of 8 nM.

Work on `O=C(O)Cn1cc(Cc2nc3c(F)c(F)cc(F)c3s2)c2cc(Br)ccc21` yielded an IC50 [1] of 4700 nM.

Molecule `Cc1ccc2c(c1)c(Cc1nc3cc(C(F)(F)F)ccc3s1)cn2CC(=O)O` has an IC50 [1] of 10200 nM and an IC50 [2] of 100 nM.

For `O=C(O)Cn1cc(Cc2nc3c(F)cc(F)cc3s2)c2ccccc21`, the IC50 [1] was 5100 nM and the IC50 [2] was 690 nM.

With `O=C(O)Cn1cc(Cc2nc3c(F)c(F)cc(F)c3s2)c2ccc(N3CCOCC3)cc21` the IC50 [1] was 44000 nM.

Work on `Cc1ccc2c(Cc3nc4c(F)c(F)cc(F)c4s3)cn(CC(=O)O)c2c1` yielded an IC50 [2] of 10 nM.

Molecule `O=C(O)Cn1cc(CCc2nc3c(F)c(F)cc(F)c3s2)c2ccccc21` has an IC50 [1] of 11000 nM and an IC50 [2] of 8 nM.

Work on `CC(C(=O)O)n1cc(Cc2nc3c(F)c(F)cc(F)c3s2)c2ccccc21` (stereo not drawn) yielded an IC50 [2] of 163 nM.

Molecule `O=C(O)Cn1cc(C(=O)c2nc3c(F)c(F)cc(F)c3s2)c2ccccc21` has an IC50 [2] of 1600 nM.

Molecule `O=C(O)Cn1cc(Cc2nc3cc(F)ccc3s2)c2ccccc21` has an IC50 [1] of 6400 nM.

With `O=C(O)Cn1cc(Cc2nc3ccc(F)cc3s2)c2ccccc21` the IC50 [2] was 1000 nM.

Work on `O=C(O)Cn1cc(Cc2nc3c(F)c(F)cc(F)c3s2)c2ccc(-c3ccccc3)cc21` yielded an IC50 [1] of 6100 nM.

Molecule `O=C(O)Cn1cc(Cc2nc3cccc(F)c3s2)c2ccccc21` has an IC50 [1] of 18000 nM and an IC50 [2] of 55 nM.

With `O=C(O)Cn1cc(Cc2nc3cc(C(F)(F)F)ccc3s2)c2cc(Cl)ccc21` the IC50 [1] was 4900 nM and the IC50 [2] was 130 nM.

With `O=C(O)Cn1cc(Cc2nc3c(F)cccc3s2)c2ccccc21` the IC50 [1] was 11000 nM and the IC50 [2] was 34 nM.

With `O=C(O)Cn1cc(Cc2nc3c(F)c(F)cc(F)c3s2)c2ccccc21` [LIDORESTAT] the Tmax [3] was 4.8 min, the Level (Rattus norvegicus [4]) was 430 mg/dL and the Level (Rattus norvegicus [5]) was 242 mg/dL. For the same molecule, the CL/F [6] was 2.24 mL/min/kg, the CL/F [7] was 1.37 mL/min/kg and the Cmax [8] was 4.18 ug equiv/mL. For the same molecule, the Level (Rattus norvegicus [9]) was 301 mg/dL, the Accumulation (Rattus norvegicus [10]) was 1.62 nM/mg of dry wt and the Level (Rattus norvegicus [11]) was 432 mg/dL. The Level (Rattus norvegicus [12]) was 427 mg/dL, the Tmax [13] was 3.5 h and the Accumulation (Rattus norvegicus [14]) was 100%. It also gave a Level (Rattus norvegicus [15]) of 189 mg/dL, a half-life [16] of 5.04 h and an Accumulation (Rattus norvegicus [17]) of 100%. The Level (Rattus norvegicus [18]) was 417 mg/dL, the inhibition in vivo at 10 mg/kg/day (Rattus norvegicus [19]) was 77% and the half-life [20] was 5.18 h. For the same molecule, the Cmax [21] was 6.09 µg equiv/mL, the half-life [22] was 5.61 h and the Accumulation (Rattus norvegicus [23]) was “Below quantifiable level”. The AUC [24] was 72.8 ug equiv/h/mL, the Level (Rattus norvegicus [25]) was 218 mg/dL and the Accumulation (Rattus norvegicus [26]) was 79%. It also gave a Vd [27] of 0.694 L/kg, a clearance [28] of 1.7 mL/min/kg and a Level (Rattus norvegicus [29]) of 261 mg/dL. For the same molecule, the AUC [30] was 43.5 ug equiv/h/mL, the AUC [31] was 97.1 ug equiv/h/mL and the inhibition in vivo at 10 mg/kg/day (Rattus norvegicus [32]) was 100%. For the same molecule, the Level (Rattus norvegicus [33]) was 440 mg/dL, the Tmax [34] was 5 h and the Accumulation (Rattus norvegicus [35]) was 9.26 nM/mg of dry wt. The Cmax [36] was 24 ug equiv/mL.

`COc1ccc2c(C(=S)N(C)CC(=O)O)cccc2c1C(F)(F)F` [TOLRESTAT] showed an inhibition in vivo at 10 mg/kg/day (Rattus norvegicus [19]) of 7% and an inhibition in vivo at 10 mg/kg/day (Rattus norvegicus [32]) of 27%.

With `O=C(O)Cn1c(=O)n(Cc2ccc(Br)cc2F)c(=O)c2ccc(Cl)cc21` [ZENARESTAT] the IC50 [1] was 9900 nM, the inhibition in vivo at 10 mg/kg/day (Rattus norvegicus [19]) was 2% and the IC50 [2] was 8 nM. The inhibition in vivo at 10 mg/kg/day (Rattus norvegicus [32]) was 64%.

With `O=C(O)Cc1nn(Cc2nc3cc(C(F)(F)F)ccc3s2)c(=O)c2ccccc12` [ZOPOLRESTAT] the IC50 [1] was 38600 nM, the inhibition in vivo at 10 mg/kg/day (Rattus norvegicus [19]) was 9% and the inhibition in vivo at 10 mg/kg/day (Rattus norvegicus [32]) was 80%.
